The kinase profiling compilation of Christmann-Franck et al. (2016)
Where “and” joins values, the source holds several entries; their conditions need not be identical. Identical values can stand only once.

Legend:
Assay in all cases: radiometric filter-binding kinase assay, Kinase HotSpot
Settings in all cases: compound 0.5 µM; ATP 10 µM
[1] = biological target: ABL1 (human) (UniProt P00519)
[2] = biological target: CAMK1D (human) (UniProt Q8IU85)
[3] = biological target: CAMK2G (human) (UniProt Q13555)
Chain of CAMK2G (human) (Q13555 whole entry, looked up): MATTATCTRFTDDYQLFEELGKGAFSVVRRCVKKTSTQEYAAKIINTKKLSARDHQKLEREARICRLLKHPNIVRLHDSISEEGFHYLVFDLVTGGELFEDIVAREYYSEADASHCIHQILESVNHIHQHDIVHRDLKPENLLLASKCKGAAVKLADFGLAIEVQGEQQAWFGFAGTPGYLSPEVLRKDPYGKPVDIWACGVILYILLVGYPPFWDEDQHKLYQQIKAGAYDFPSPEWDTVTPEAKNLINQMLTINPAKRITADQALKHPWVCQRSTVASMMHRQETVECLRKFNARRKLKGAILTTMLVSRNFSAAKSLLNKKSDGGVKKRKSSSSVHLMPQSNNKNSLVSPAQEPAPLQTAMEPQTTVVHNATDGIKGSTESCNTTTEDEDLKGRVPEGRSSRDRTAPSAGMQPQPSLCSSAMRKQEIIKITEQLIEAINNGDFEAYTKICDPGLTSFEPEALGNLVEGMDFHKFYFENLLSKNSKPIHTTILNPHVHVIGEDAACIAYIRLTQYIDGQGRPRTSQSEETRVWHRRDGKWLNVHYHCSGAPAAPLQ

[4] = biological target: CDK5 CDK5R1 p25 (human) (UniProt Q00535+Q15078)
Chain of CDK5 CDK5R1 p25 (human) (Q00535 whole entry, looked up): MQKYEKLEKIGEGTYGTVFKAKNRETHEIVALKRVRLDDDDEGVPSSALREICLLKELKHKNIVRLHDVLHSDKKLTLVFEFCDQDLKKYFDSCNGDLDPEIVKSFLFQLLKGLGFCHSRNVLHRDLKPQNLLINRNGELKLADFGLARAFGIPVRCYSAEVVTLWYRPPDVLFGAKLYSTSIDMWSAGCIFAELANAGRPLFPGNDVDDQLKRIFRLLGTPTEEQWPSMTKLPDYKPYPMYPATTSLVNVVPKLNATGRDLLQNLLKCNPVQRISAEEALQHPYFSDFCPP
Chain of CDK5 CDK5R1 p25 (human) (Q15078 whole entry, looked up): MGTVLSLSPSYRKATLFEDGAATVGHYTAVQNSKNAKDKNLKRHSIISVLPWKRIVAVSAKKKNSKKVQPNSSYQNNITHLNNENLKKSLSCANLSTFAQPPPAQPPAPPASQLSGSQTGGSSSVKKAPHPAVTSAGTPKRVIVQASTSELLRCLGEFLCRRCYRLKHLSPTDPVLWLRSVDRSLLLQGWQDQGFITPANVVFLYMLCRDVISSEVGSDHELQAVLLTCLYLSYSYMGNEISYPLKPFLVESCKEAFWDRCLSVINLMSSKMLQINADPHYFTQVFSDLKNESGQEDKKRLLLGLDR

[5] = biological target: CDK5 CDK5R1 p35 (human) (UniProt Q00535+Q15078)
[6] = biological target: CDK6 CCND1 (human) (UniProt Q00534+P24385)
Chain of CDK6 CCND1 (human) (P24385 whole entry, looked up): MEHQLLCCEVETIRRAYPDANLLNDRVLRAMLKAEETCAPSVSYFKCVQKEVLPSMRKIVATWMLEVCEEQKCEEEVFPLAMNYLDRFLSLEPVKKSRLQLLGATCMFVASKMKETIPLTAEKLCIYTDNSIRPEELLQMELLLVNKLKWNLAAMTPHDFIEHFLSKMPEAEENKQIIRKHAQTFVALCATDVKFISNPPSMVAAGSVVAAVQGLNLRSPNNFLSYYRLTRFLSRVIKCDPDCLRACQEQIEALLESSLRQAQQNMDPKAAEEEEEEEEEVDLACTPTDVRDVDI
Chain of CDK6 CCND1 (human) (Q00534 whole entry, looked up): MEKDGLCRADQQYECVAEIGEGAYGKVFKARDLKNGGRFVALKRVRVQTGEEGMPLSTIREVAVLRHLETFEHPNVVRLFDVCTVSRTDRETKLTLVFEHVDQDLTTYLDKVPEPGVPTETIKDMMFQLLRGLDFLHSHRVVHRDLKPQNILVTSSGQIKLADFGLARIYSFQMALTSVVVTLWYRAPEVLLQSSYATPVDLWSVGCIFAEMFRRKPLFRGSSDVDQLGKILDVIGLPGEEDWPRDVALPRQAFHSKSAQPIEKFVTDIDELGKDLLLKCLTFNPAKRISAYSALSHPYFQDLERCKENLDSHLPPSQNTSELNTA

[7] = biological target: CSNK1D (human) (UniProt P48730)
[8] = biological target: CSNK1G2 (human) (UniProt P78368)
[9] = biological target: DAPK2 (human) (UniProt Q9UIK4)
Chain of DAPK2 (human) (Q9UIK4 whole entry, looked up): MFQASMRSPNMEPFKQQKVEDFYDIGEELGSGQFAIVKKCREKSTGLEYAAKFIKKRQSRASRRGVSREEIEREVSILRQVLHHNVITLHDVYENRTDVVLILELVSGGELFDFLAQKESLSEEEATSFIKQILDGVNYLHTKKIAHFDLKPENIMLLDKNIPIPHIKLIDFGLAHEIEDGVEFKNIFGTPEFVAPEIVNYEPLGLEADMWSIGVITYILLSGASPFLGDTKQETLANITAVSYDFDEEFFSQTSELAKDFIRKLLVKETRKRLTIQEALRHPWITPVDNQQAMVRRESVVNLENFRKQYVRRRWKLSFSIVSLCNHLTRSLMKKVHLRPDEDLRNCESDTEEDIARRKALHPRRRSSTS

[10] = biological target: DAPK3 (human) (UniProt O43293)
[11] = biological target: DMPK (human) (UniProt Q09013)
[12] = biological target: EGFR (human) (UniProt P00533)
[13] = biological target: ERBB4 (human) (UniProt Q15303)
[14] = biological target: FGFR1 (human) (UniProt P11362)
[15] = biological target: FYN (human) (UniProt P06241)
[16] = biological target: IKBKE (human) (UniProt Q14164)
[17] = biological target: ITK (human) (UniProt Q08881)
Chain of ITK (human) (Q08881 whole entry, looked up): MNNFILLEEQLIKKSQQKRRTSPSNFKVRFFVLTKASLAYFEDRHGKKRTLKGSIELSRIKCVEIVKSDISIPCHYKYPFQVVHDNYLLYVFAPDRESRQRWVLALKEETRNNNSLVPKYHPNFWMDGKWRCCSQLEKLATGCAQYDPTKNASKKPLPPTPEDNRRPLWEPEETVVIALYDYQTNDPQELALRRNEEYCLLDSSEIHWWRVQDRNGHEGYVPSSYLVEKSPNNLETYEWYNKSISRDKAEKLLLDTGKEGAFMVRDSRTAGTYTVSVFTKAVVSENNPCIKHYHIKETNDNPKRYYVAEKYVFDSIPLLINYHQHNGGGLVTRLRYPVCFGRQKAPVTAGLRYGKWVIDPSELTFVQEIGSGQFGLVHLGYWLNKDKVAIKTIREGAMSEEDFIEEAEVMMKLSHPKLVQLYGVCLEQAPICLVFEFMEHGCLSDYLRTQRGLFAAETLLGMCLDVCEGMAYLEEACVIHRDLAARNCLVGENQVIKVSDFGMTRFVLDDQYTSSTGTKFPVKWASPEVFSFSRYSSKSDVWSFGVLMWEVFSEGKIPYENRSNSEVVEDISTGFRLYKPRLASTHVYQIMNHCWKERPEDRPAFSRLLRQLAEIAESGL

[18] = biological target: JAK3 JH1 JH2 (human) (UniProt P52333)
[19] = biological target: KIT (human) (UniProt P10721)
[20] = biological target: LIMK1 (human) (UniProt P53667)
[21] = biological target: LYN (human) (UniProt P07948)
[22] = biological target: MAP3K11 (human) (UniProt Q16584)
[23] = biological target: MAPK3 (human) (UniProt P27361)
[24] = biological target: MAPK8 (human) (UniProt P45983)
Chain of MAPK8 (human) (P45983 whole entry, looked up): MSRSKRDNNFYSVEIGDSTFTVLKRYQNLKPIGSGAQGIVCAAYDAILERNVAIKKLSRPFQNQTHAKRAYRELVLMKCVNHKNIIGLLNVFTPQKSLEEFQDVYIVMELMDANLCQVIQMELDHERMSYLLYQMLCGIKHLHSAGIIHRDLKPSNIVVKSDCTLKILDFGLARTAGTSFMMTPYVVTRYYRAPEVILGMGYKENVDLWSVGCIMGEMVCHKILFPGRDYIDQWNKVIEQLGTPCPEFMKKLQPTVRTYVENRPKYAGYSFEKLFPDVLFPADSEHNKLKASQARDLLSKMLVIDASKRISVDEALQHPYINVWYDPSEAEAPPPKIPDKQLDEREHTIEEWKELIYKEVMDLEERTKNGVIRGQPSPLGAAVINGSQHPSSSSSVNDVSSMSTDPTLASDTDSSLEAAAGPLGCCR

[25] = biological target: MARK2 (human) (UniProt Q7KZI7)
[26] = biological target: NEK6 (human) (UniProt Q9HC98)
[27] = biological target: NEK9 (human) (UniProt Q8TD19)
[28] = biological target: NTRK2 (human) (UniProt Q16620)
[29] = biological target: NTRK3 (human) (UniProt Q16288)
[30] = biological target: PAK3 (human) (UniProt O75914)
Chain of PAK3 (human) (O75914 whole entry, looked up): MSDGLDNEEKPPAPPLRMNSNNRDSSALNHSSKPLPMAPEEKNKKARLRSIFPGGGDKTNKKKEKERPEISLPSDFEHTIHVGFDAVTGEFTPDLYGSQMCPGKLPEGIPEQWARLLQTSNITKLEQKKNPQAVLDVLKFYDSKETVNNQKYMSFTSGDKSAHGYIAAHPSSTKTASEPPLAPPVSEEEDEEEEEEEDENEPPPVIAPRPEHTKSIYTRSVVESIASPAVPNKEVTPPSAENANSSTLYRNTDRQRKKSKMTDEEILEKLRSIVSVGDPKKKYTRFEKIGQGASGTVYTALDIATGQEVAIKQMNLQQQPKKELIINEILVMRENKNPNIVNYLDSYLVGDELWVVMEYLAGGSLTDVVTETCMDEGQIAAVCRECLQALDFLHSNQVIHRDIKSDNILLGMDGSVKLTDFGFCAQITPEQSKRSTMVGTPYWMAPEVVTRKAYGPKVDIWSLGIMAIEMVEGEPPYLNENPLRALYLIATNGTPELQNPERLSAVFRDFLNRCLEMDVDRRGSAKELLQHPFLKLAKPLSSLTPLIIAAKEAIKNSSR

[31] = biological target: PAK4 (human) (UniProt O96013)
[32] = biological target: PAK7 (human) (UniProt Q9P286)
[33] = biological target: PDPK1 (human) (UniProt O15530)
[34] = biological target: PIM3 (human) (UniProt Q86V86)
[35] = biological target: PKN1 (human) (UniProt Q16512)
Chain of PKN1 (human) (Q16512 whole entry, looked up): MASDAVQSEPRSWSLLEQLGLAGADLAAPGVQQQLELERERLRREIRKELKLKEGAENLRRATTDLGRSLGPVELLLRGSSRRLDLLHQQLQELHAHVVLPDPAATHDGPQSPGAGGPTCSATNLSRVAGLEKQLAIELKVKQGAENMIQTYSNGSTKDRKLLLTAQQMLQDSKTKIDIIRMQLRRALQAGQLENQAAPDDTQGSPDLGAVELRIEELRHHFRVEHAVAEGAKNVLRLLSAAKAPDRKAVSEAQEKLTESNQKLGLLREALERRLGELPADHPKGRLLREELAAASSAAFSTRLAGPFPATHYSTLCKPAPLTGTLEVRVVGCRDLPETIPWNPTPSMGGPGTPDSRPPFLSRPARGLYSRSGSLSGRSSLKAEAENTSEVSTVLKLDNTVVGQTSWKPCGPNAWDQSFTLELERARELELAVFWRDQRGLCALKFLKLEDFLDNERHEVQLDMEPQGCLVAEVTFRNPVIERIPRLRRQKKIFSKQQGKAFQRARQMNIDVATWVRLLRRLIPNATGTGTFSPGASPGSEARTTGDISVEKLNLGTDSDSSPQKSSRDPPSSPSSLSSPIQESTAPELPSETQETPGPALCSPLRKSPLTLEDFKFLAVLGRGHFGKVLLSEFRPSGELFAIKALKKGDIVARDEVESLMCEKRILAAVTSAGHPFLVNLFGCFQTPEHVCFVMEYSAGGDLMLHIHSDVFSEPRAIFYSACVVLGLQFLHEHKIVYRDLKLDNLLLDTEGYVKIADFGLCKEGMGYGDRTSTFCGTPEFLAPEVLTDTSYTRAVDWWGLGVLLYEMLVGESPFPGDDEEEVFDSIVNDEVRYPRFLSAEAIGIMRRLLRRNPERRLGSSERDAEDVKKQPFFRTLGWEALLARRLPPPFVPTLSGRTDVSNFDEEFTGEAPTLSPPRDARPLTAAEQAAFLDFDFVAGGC

[36] = biological target: PKN2 (human) (UniProt Q16513)
[37] = biological target: PRKCA (human) (UniProt P17252)
[38] = biological target: PRKCZ (human) (UniProt Q05513)
[39] = biological target: SGK3 (human) (UniProt Q96BR1)
[40] = biological target: STK39 (human) (UniProt Q9UEW8)
[41] = biological target: TBK1 (human) (UniProt Q9UHD2)
[42] = biological target: TSSK1B (human) (UniProt Q9BXA7)

In the case of CN(C)c1ccc(/C=C2\C(=O)Nc3ccccc32)cc1, the residual activity [1] is reported as 103%, the residual activity [2] is reported as 98.8% and the residual activity [3] is reported as 99.6%. It also gave a residual activity [4] of 102%, a residual activity [5] of 104% and a residual activity [6] of 101%. For the same compound, the residual activity [7] was 69%, the residual activity [8] was 96.7% and the residual activity [9] was 105%. It also gave a residual activity [10] of 101%, a residual activity [11] of 105% and a residual activity [12] of 92.1%. For the same compound, the residual activity [13] was 97.7%, the residual activity [14] was 92% and the residual activity [15] was 104%. The residual activity [16] was 98.2%, the residual activity [17] was 99% and the residual activity [18] was 113%. The residual activity [19] was 45.6%, the residual activity [20] was 97.7% and the residual activity [21] was 108% and 97.8%. For the same compound, the residual activity [22] was 88.4%, the residual activity [23] was 102% and the residual activity [24] was 103%. It also gave a residual activity [25] of 105%, a residual activity [26] of 96.9% and a residual activity [27] of 99.8%. The residual activity [28] was 54.8%, the residual activity [29] was 36.3% and the residual activity [30] was 99%. The residual activity [31] was 101%, the residual activity [32] was 101% and the residual activity [33] was 82.3%. For the same compound, the residual activity [34] was 102%, the residual activity [35] was 98.4% and the residual activity [36] was 98.9%. For the same compound, the residual activity [37] was 94.5%, the residual activity [38] was 112% and the residual activity [39] was 107%. The residual activity [40] was 96.6%, the residual activity [41] was 98.4% and the residual activity [42] was 102%.

Compound CCCCc1c(-c2ccc(OC)cc2)[nH]c2nccnc12 has a residual activity [1] of 83.4%, a residual activity [2] of 97.9% and a residual activity [3] of 107%. For the same compound, the residual activity [4] was 41.3%, the residual activity [5] was 48.3% and the residual activity [6] was 54.8%. It also gave a residual activity [7] of 94.7%, a residual activity [8] of 92.5% and a residual activity [9] of 101%. It also gave a residual activity [10] of 102%, a residual activity [11] of 84.3% and a residual activity [12] of 103%. The residual activity [13] was 109%, the residual activity [14] was 83.3% and the residual activity [15] was 61.3%. The residual activity [16] was 100%, the residual activity [17] was 99.4% and the residual activity [18] was 92.8%. For the same compound, the residual activity [19] was 82.9%, the residual activity [20] was 65.3% and the residual activity [21] was 108% and 85.5%. It also gave a residual activity [22] of 39.4%, a residual activity [23] of 111% and a residual activity [24] of 74.5%. It also gave a residual activity [25] of 83.1%, a residual activity [26] of 111% and a residual activity [27] of 106%. The residual activity [28] was 73.4%, the residual activity [29] was 84.4% and the residual activity [30] was 106%. It also gave a residual activity [31] of 107%, a residual activity [32] of 88.1% and a residual activity [33] of 102%. The residual activity [34] was 90.9%, the residual activity [35] was 89.1% and the residual activity [36] was 88.6%. It also gave a residual activity [37] of 92.7%, a residual activity [38] of 93.9% and a residual activity [39] of 98.6%. It also gave a residual activity [40] of 77.8%, a residual activity [41] of 81.4% and a residual activity [42] of 65.3%.

COc1ccc(C(=O)Nc2sc3c(c2C(N)=O)CCCC3)cc1OC was tested, and the residual activity [1] was 101%, the residual activity [2] was 93.8% and the residual activity [3] was 95.8%. For the same compound, the residual activity [4] was 94.2%, the residual activity [5] was 90.8% and the residual activity [6] was 95.1%. The residual activity [7] was 103%, the residual activity [8] was 98.7% and the residual activity [9] was 106%. For the same compound, the residual activity [10] was 102%, the residual activity [11] was 108% and the residual activity [12] was 99.9%. It also gave a residual activity [13] of 97.2%, a residual activity [14] of 94.8% and a residual activity [15] of 93.9%. It also gave a residual activity [16] of 106%, a residual activity [17] of 99.6% and a residual activity [18] of 108%. The residual activity [19] was 46.2%, the residual activity [20] was 93.2% and the residual activity [21] was 93.5% and 95.9%. The residual activity [22] was 96.8%, the residual activity [23] was 95.2% and the residual activity [24] was 94.7%. It also gave a residual activity [25] of 98.7%, a residual activity [26] of 92.7% and a residual activity [27] of 94.6%. The residual activity [28] was 67.4%, the residual activity [29] was 57.7% and the residual activity [30] was 96.2%. For the same compound, the residual activity [31] was 95.9%, the residual activity [32] was 96.6% and the residual activity [33] was 87.8%. It also gave a residual activity [34] of 109%, a residual activity [35] of 96.3% and a residual activity [36] of 98.5%. For the same compound, the residual activity [37] was 96.6%, the residual activity [38] was 89.3% and the residual activity [39] was 103%. It also gave a residual activity [40] of 101%, a residual activity [41] of 102% and a residual activity [42] of 115%.

COc1ccc2c(c1)c(C1=C(c3c[nH]c4ccccc34)C(=O)NC1=O)cn2CCCN(C)C showed a residual activity [1] of 107%, a residual activity [2] of 73.3% and a residual activity [3] of 91.1%. The residual activity [4] was 114%, the residual activity [5] was 81.4% and the residual activity [6] was 64%. It also gave a residual activity [7] of 92%, a residual activity [8] of 82.2% and a residual activity [9] of 81.1%. It also gave a residual activity [10] of 75.5%, a residual activity [11] of 97.7% and a residual activity [12] of 92.6%. The residual activity [13] was 93.4%, the residual activity [14] was 59% and the residual activity [15] was 110%. It also gave a residual activity [16] of 100%, a residual activity [17] of 70.4% and a residual activity [18] of 138%. For the same compound, the residual activity [19] was 88.8%, the residual activity [20] was 81.8% and the residual activity [21] was 112% and 94.2%. It also gave a residual activity [22] of 75.6%, a residual activity [23] of 93% and a residual activity [24] of 80%. For the same compound, the residual activity [25] was 91.8%, the residual activity [26] was 101% and the residual activity [27] was 90.3%. It also gave a residual activity [28] of 88.1%, a residual activity [29] of 54.9% and a residual activity [30] of 105%. The residual activity [31] was 94.8%, the residual activity [32] was 67.6% and the residual activity [33] was 76.7%. For the same compound, the residual activity [34] was 5.01%, the residual activity [35] was 34.7% and the residual activity [36] was 95%. For the same compound, the residual activity [37] was 3.14%, the residual activity [38] was 78.2% and the residual activity [39] was 101%. The residual activity [40] was 111%, the residual activity [41] was 90.7% and the residual activity [42] was 80.3%.
